Experimental data published in patent publication US12064514B2, “Ultrasound-sensitive peptide particles for spatially resolved molecule delivery” (The Penn State Research Foundation, priority 2017, dated 2024).

How the values were obtained:
[1] = system: green fluorescent protein (GFP); assay: screening of fluorine-containing cargo solubilizing agents for GFP dispersion in perfluorocarbon; conditions: for GFP dispersion efficiency: in PFH, after resuspension in aqueous buffer
Method: For each condition, 200 ul of compounds+PFH was aliquoted into an Eppendorf tube containing individually dried GFP stocks (1 uM) for 9 replicates. Each tube was parafilmed, vortexed, placed on VWR tube rotator overnight at 4° C., and then centrifuged for 5 min at 4000 rpm. Next, 100 ul of each sample was aliquoted onto a black bottom 96-well plate for fluorescence scan from 500 to 560. The 96-well plate was then placed in 37° C. overnight to dry the PFH. The dry samples were resuspended in 100 ul PBS and scanned for fluorescence using BioTek Cytation 3 imaging reader. […] Here, PFH is used as a surrogate for the penultimate solvent perfluoro-n-pentane (PFP) used to form the peptisome core, as PFP has a low boiling point and low surface tension, making it difficult to use in these screening experiments.
Fluorine-containing cargo solubilizing agent #6 (perfluorononanoic acid, PNFA) was dissolved at various concentrations in PFH to achieve molar ratios with GFP at 400:1 to 50,000:1 fluorine-containing cargo solubilizing agent-to-GFP. For this molar ratio screening, PFNA was vortexed and sonicated to dissolve into PFH at 0.4, 2, 50, and 100 mM. For each condition, 200 ul of PFNA+PFH was aliquoted into an Eppendorf tube containing individually dried GFP (1 uM) for 9 replicates. Each tube was parafilmed, vortexed, placed on VWR tube rotator overnight at 4° C., and then centrifuged for 5 min at 4000 rpm. Next, 100 ul of each sample was aliquoted onto a black bottom 96-well plate for fluorescence scan from 500 to 560. The 96-well plate was then placed in 37° C. overnight to dry the PFH. The dry samples were resuspended in 100 ul PBS and scanned for fluorescence using BioTek Cytation 3 imaging reader.
For PFH and PFP solvent comparison, 2 mM PFNA was vortexed and sonicated to dissolve into either PFH or PFP on ice. For each condition, 200 ul of adjuvant/PFH or adjuvant/PFP was aliquoted into an Eppendorf tube containing individually dried GFP stocks (1 uM) for 3 replicates. Each tube was parafilmed, vortexed, placed on VWR tube rotator overnight at 4° C., and then centrifuged for 5 min at 4000 rpm. Next, 100 ul of each sample was aliquoted onto a black bottom 96-well plate for fluorescence scan from 500 to 560. The 96-well plate was then placed in 37° C. overnight to dry the PFH and PFP.

αVβ3 integrin = αVβ3 integrin (Homo sapiens, UniProt P05106+P06756); conditions: read-out: binding affinity to αVβ3 integrin (IC50, conc. at which 50% of receptor is bound by ligand); cited from earlier work
Sequence of αVβ3 integrin (P06756 31-1048): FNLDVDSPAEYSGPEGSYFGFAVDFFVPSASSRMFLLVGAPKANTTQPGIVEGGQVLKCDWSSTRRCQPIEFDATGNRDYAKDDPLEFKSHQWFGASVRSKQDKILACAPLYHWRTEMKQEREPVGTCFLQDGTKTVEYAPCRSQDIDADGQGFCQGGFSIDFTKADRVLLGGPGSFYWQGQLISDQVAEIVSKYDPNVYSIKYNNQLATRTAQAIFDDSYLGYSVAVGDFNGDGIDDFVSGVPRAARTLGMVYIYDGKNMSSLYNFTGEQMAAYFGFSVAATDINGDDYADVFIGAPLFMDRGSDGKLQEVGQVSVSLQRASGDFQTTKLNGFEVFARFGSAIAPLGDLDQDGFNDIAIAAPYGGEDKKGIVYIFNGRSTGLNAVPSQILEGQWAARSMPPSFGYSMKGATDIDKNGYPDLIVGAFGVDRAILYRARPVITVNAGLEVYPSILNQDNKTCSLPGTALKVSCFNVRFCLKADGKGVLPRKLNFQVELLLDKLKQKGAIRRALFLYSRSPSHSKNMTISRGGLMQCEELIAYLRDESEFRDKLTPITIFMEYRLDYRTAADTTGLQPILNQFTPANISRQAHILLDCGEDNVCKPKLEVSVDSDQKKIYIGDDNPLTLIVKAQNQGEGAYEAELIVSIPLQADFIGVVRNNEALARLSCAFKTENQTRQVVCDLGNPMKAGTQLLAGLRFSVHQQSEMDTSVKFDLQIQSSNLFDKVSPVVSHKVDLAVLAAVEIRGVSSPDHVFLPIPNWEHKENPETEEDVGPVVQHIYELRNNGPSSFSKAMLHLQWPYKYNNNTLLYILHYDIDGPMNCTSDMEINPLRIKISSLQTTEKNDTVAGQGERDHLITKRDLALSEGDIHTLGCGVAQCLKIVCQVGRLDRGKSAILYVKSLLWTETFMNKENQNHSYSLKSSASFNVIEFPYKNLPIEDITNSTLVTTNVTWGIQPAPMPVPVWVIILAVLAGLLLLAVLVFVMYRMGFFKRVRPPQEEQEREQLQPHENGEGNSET
Sequence of αVβ3 integrin (P05106 27-788): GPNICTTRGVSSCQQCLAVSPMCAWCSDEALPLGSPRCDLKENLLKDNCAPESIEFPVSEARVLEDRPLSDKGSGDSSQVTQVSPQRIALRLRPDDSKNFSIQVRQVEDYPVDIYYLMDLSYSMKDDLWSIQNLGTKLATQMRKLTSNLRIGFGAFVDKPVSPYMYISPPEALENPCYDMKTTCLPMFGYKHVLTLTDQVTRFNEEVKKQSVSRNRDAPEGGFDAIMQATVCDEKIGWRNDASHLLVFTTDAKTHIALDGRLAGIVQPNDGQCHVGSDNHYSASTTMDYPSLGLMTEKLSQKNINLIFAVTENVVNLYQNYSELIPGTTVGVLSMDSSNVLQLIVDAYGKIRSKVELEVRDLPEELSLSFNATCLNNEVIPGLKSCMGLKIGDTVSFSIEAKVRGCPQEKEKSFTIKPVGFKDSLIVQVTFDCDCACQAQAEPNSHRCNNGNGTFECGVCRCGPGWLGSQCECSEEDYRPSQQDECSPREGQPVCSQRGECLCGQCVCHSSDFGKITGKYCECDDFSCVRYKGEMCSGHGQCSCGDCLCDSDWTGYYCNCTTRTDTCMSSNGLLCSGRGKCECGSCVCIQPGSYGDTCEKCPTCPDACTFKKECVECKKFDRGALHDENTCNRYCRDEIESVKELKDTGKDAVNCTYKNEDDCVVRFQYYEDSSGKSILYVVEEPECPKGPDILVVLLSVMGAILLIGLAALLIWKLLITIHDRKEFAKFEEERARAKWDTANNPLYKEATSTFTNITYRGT

| Compound | GFP dispersion efficiency [1] [%] | IC50 (αVβ3 integrin) [nM] | also measured |
| --- | --- | --- | --- |
| FC(F)(F)C(F)(F)C(F)(F)C(F)(F)C(F)(F)C(F)(F)C(F)(F)C(F)(F)C(F)(F)C(F)(F)C(F)(F)C(F)(F)C(F)(F)C(F)(F)F [Compound 2, perfluoroteradecane] | 5.1 |  |  |
| O=C(O)C(F)(F)C(F)(F)C(F)(F)C(F)(F)F [Compound 5, perfluoropentanoic acid] | 4.3 |  |  |
| O=C(O)C(F)(F)C(F)(F)C(F)(F)C(F)(F)C(F)(F)C(F)(F)C(F)(F)C(F)(F)F [Compound 6, perfluorononanoic acid] | 39.3 |  | protein dispersed within PFH compared to compound 5 [1]: approximately 10 fold; protein dispersion with PFP compared to PFH ([1]; 2000:1 molar ratio): no significant difference; total GFP loading efficiency into PFH ([1]; molar ratios of 2,000 to 10,000:1 agent-to-GFP): ~63% |
| GRGD |  | 55 ± 7 |  |
| GRGDNP |  | 45 ± 12 |  |
| GRGDS |  | 28 ± 3 |  |
| GRGDSPK |  | 12.2 ± 0.1 |  |
| GRGDTP |  | 28 ± 5 |  |
| RGD |  | 89 ± 12 |  |
| RGDS |  | 45 ± 5 |  |
